PubChem BioAssay (NCI)
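All cell lines were grown in 96-well plates and treated with compound for 48 hours. Definition used: TGI = concentration required for complete inhibition of growth.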

Experiments:
Test in all cases: NCI anticancer screen, dose series, 48 h
RXF-631 renal = system: RXF-631 renal
K-562 leukemia = system: K-562 leukemia
A498 renal = system: A498 renal
SNB-78 CNS = system: SNB-78 CNS
M19-MEL melanoma = system: M19-MEL melanoma
NCI-H23 lung = system: NCI-H23 lung
OVCAR-8 ovarian = system: OVCAR-8 ovarian
COLO 205 colon = system: COLO 205 colon
786-0 renal = system: 786-0 renal
UACC-257 melanoma = system: UACC-257 melanoma
KM12 colon = system: KM12 colon
UACC-62 melanoma = system: UACC-62 melanoma
CCRF-CEM leukemia = system: CCRF-CEM leukemia
SK-OV-3 ovarian = system: SK-OV-3 ovarian
SK-MEL-5 melanoma = system: SK-MEL-5 melanoma
HCC-2998 colon = system: HCC-2998 colon
UO-31 renal = system: UO-31 renal
M14 melanoma = system: M14 melanoma
ACHN renal = system: ACHN renal
TK-10 renal = system: TK-10 renal
NCI-H522 lung = system: NCI-H522 lung
OVCAR-3 ovarian = system: OVCAR-3 ovarian
RPMI-8226 leukemia = system: RPMI-8226 leukemia
IGROV1 ovarian = system: IGROV1 ovarian
SR leukemia = system: SR leukemia
U251 CNS = system: U251 CNS
EKVX NSCLC = system: EKVX NSCLC
XF 498 CNS = system: XF 498 CNS
SN12C renal = system: SN12C renal
SK-MEL-2 melanoma = system: SK-MEL-2 melanoma
DMS 114 small cell lung = system: DMS 114 small cell lung
LXFL 529 NSCLC = system: LXFL 529 NSCLC
DLD-1 colon = system: DLD-1 colon
SW-620 colon = system: SW-620 colon
SF-268 CNS = system: SF-268 CNS
HL-60(TB) leukemia = system: HL-60(TB) leukemia
HCT-15 colon = system: HCT-15 colon
HCT-116 colon = system: HCT-116 colon
MOLT-4 leukemia = system: MOLT-4 leukemia
HOP-62 NSCLC = system: HOP-62 NSCLC
OVCAR-4 ovarian = system: OVCAR-4 ovarian
SK-MEL-28 melanoma = system: SK-MEL-28 melanoma
SF-295 CNS = system: SF-295 CNS
KM20L2 colon = system: KM20L2 colon
A549 NSCLC = system: A549 NSCLC
CAKI-1 renal = system: CAKI-1 renal
LOX IMVI melanoma = system: LOX IMVI melanoma
SNB-75 CNS = system: SNB-75 CNS
SNB-19 CNS = system: SNB-19 CNS
DMS 273 small cell lung = system: DMS 273 small cell lung
NCI-H460 lung = system: NCI-H460 lung
SF-539 CNS = system: SF-539 CNS
OVCAR-5 ovarian = system: OVCAR-5 ovarian
MALME-3M melanoma = system: MALME-3M melanoma
NCI-H226 lung = system: NCI-H226 lung
RXF 393 renal = system: RXF 393 renal
HOP-92 NSCLC = system: HOP-92 NSCLC
HOP-18 NSCLC = system: HOP-18 NSCLC
HT29 colon = system: HT29 colon

## [Cl-].[Fe+2].c1ccc(-c2ccnc3c2ccc2c(-c4ccccc4)ccnc23)cc1.c1ccc(-c2ccnc3c2ccc2c(-c4ccccc4)ccnc23)cc1.c1ccc(-c2ccnc3c2ccc2c(-c4ccccc4)ccnc23)cc1
RXF-631 renal
  TGI: > 100 µM
K-562 leukemia
  TGI: 0.139 µM
A498 renal
  TGI: 0.39 µM
SNB-78 CNS
  TGI: > 100 µM

## O=CCCCC(Sc1ccccc1)Sc1ccccc1
M19-MEL melanoma
  TGI: 39.8 µM
NCI-H23 lung
  TGI: 27.3 µM
OVCAR-8 ovarian
  TGI: 35.8 µM
COLO 205 colon
  TGI: 57.9 µM
786-0 renal
  TGI: 46 µM
RXF-631 renal
  TGI: 40 µM
UACC-257 melanoma
  TGI: 48.5 µM
KM12 colon
  TGI: > 100 µM
UACC-62 melanoma
  TGI: 24.5 µM
CCRF-CEM leukemia
  TGI: 44.6 µM
SK-OV-3 ovarian
  TGI: 59.4 µM
SK-MEL-5 melanoma
  TGI: 30.8 µM
HCC-2998 colon
  TGI: 84 µM
K-562 leukemia
  TGI: 76.6 µM
UO-31 renal
  TGI: 66.8 µM
M14 melanoma
  TGI: 51.3 µM
ACHN renal
  TGI: 38.4 µM
TK-10 renal
  TGI: > 100 µM
NCI-H522 lung
  TGI: > 100 µM
OVCAR-3 ovarian
  TGI: 68 µM
RPMI-8226 leukemia
  TGI: 48.6 µM
IGROV1 ovarian
  TGI: 50.5 µM
SR leukemia
  TGI: 48.3 µM
U251 CNS
  TGI: 30.3 µM
EKVX NSCLC
  TGI: > 100 µM
XF 498 CNS
  TGI: 42.6 µM
SN12C renal
  TGI: 56.7 µM
SK-MEL-2 melanoma
  TGI: 42.7 µM
DMS 114 small cell lung
  TGI: 49 µM
LXFL 529 NSCLC
  TGI: 25.6 µM
DLD-1 colon
  TGI: 31.6 µM
A498 renal
  TGI: > 100 µM
SW-620 colon
  TGI: 23.6 µM
SF-268 CNS
  TGI: 43.3 µM
HL-60(TB) leukemia
  TGI: 78.3 µM
HCT-15 colon
  TGI: 33.2 µM
HCT-116 colon
  TGI: 28.4 µM
MOLT-4 leukemia
  TGI: 38.9 µM
HOP-62 NSCLC
  TGI: > 100 µM
OVCAR-4 ovarian
  TGI: 45.6 µM
SNB-78 CNS
  TGI: 37.7 µM
SK-MEL-28 melanoma
  TGI: 32 µM
SF-295 CNS
  TGI: 40.7 µM
KM20L2 colon
  TGI: > 100 µM
A549 NSCLC
  TGI: > 100 µM
CAKI-1 renal
  TGI: > 100 µM
LOX IMVI melanoma
  TGI: 26.6 µM
SNB-75 CNS
  TGI: 35.9 µM
SNB-19 CNS
  TGI: > 100 µM
DMS 273 small cell lung
  TGI: 33.9 µM

## C/C(=N\NS(=O)(=O)c1ccc([N+](=O)[O-])cc1)c1ccc[n+]([O-])n1
M19-MEL melanoma
  TGI: 5.05 µM
NCI-H23 lung
  TGI: 3.6 µM
OVCAR-8 ovarian
  TGI: 6.61 µM
COLO 205 colon
  TGI: 6.56 µM
786-0 renal
  TGI: 15.6 µM
UACC-257 melanoma
  TGI: 14.6 µM
KM12 colon
  TGI: 33.8 µM
UACC-62 melanoma
  TGI: 2.59 µM
CCRF-CEM leukemia
  TGI: > 30.1 µM
SK-OV-3 ovarian
  TGI: 7.24 µM
SK-MEL-5 melanoma
  TGI: 5.97 µM
NCI-H460 lung
  TGI: 2.75 µM
HCC-2998 colon
  TGI: 22.3 µM
K-562 leukemia
  TGI: > 65.4 µM
UO-31 renal
  TGI: 6.74 µM
M14 melanoma
  TGI: 4.84 µM
ACHN renal
  TGI: > 21.7 µM
TK-10 renal
  TGI: 25.9 µM
NCI-H522 lung
  TGI: 4.51 µM
OVCAR-3 ovarian
  TGI: 4.95 µM
SF-539 CNS
  TGI: 4.94 µM
RPMI-8226 leukemia
  TGI: 7.17 µM
IGROV1 ovarian
  TGI: 20.9 µM
OVCAR-5 ovarian
  TGI: 6.1 µM
SR leukemia
  TGI: 49 µM
U251 CNS
  TGI: 5.06 µM
MALME-3M melanoma
  TGI: 9.45 µM
EKVX NSCLC
  TGI: 20.9 µM
XF 498 CNS
  TGI: 7.69 µM
SN12C renal
  TGI: 12 µM
SK-MEL-2 melanoma
  TGI: 3.84 µM
DMS 114 small cell lung
  TGI: 4.75 µM
LXFL 529 NSCLC
  TGI: 6.7 µM
DLD-1 colon
  TGI: 20.3 µM
A498 renal
  TGI: 4 µM
NCI-H226 lung
  TGI: 3.91 µM
SW-620 colon
  TGI: 7.99 µM
SF-268 CNS
  TGI: 7.65 µM
HL-60(TB) leukemia
  TGI: > 22.6 µM
HCT-15 colon
  TGI: 24.9 µM
RXF 393 renal
  TGI: 2.67 µM
HCT-116 colon
  TGI: 3.9 µM
MOLT-4 leukemia
  TGI: 11.5 µM
HOP-92 NSCLC
  TGI: 8.3 µM
HOP-62 NSCLC
  TGI: 4.7 µM
OVCAR-4 ovarian
  TGI: 5.69 µM
SNB-78 CNS
  TGI: 51.8 µM
HOP-18 NSCLC
  TGI: 68.2 µM
SF-295 CNS
  TGI: 7.05 µM
KM20L2 colon
  TGI: 19.5 µM
A549 NSCLC
  TGI: > 100 µM
CAKI-1 renal
  TGI: 6.99 µM
LOX IMVI melanoma
  TGI: 2.15 µM
SNB-75 CNS
  TGI: 5.36 µM
SNB-19 CNS
  TGI: 99.1 µM
HT29 colon
  TGI: 3.98 µM
DMS 273 small cell lung
  TGI: 2.74 µM

## CCOC(=O)C1=C(C)N(C2OC(COC(=O)c3ccccc3)C(OC(=O)c3ccccc3)C2OC(=O)c2ccccc2)C(=S)NC1c1ccccc1 (configuration not stated)
M19-MEL melanoma
  TGI: > 100 µM
NCI-H23 lung
  TGI: > 100 µM
OVCAR-8 ovarian
  TGI: > 100 µM
COLO 205 colon
  TGI: > 100 µM
UACC-257 melanoma
  TGI: > 100 µM
KM12 colon
  TGI: > 100 µM
UACC-62 melanoma
  TGI: > 100 µM
CCRF-CEM leukemia
  TGI: > 100 µM
SK-OV-3 ovarian
  TGI: > 100 µM
SK-MEL-5 melanoma
  TGI: 42.8 µM
NCI-H460 lung
  TGI: > 100 µM
HCC-2998 colon
  TGI: > 100 µM
K-562 leukemia
  TGI: 91.7 µM
UO-31 renal
  TGI: 99.4 µM
M14 melanoma
  TGI: 93.2 µM
ACHN renal
  TGI: > 100 µM
NCI-H522 lung
  TGI: 66.1 µM
OVCAR-3 ovarian
  TGI: 71.9 µM
SF-539 CNS
  TGI: > 100 µM
RPMI-8226 leukemia
  TGI: 45.2 µM
IGROV1 ovarian
  TGI: > 100 µM
OVCAR-5 ovarian
  TGI: > 100 µM
SR leukemia
  TGI: 73.2 µM
U251 CNS
  TGI: > 100 µM
MALME-3M melanoma
  TGI: 78.8 µM
EKVX NSCLC
  TGI: 62.2 µM
SN12C renal
  TGI: > 100 µM
SK-MEL-2 melanoma
  TGI: > 100 µM
DMS 114 small cell lung
  TGI: 97.2 µM
LXFL 529 NSCLC
  TGI: > 100 µM
DLD-1 colon
  TGI: > 100 µM
A498 renal
  TGI: > 100 µM
NCI-H226 lung
  TGI: > 100 µM
SW-620 colon
  TGI: > 100 µM
SF-268 CNS
  TGI: > 100 µM
HL-60(TB) leukemia
  TGI: 33.9 µM
HCT-116 colon
  TGI: > 100 µM
MOLT-4 leukemia
  TGI: 80.6 µM
HOP-62 NSCLC
  TGI: > 100 µM
OVCAR-4 ovarian
  TGI: > 100 µM
SNB-78 CNS
  TGI: > 100 µM
HOP-18 NSCLC
  TGI: > 100 µM
SK-MEL-28 melanoma
  TGI: > 100 µM
SF-295 CNS
  TGI: > 100 µM
KM20L2 colon
  TGI: > 100 µM
A549 NSCLC
  TGI: > 100 µM
CAKI-1 renal
  TGI: 79.4 µM
LOX IMVI melanoma
  TGI: > 100 µM
SNB-75 CNS
  TGI: > 100 µM
SNB-19 CNS
  TGI: > 100 µM
HT29 colon
  TGI: > 100 µM
